# Earlier results as cited in US5977116A, “Piperazine, piperidine and tetrahydropyridine derivatives” (Merck Sharp & Dohme Ltd., priority 1995, dated 1999).
# Tested on: human 5-HT1Dα and 5-HT1Dβ receptor subtypes
# Conditions: cf. WO-A-91/17174, Table 1
structure (smiles),measurement,value
CNS(=O)(=O)Cc1ccc2[nH]cc(CCN(C)C)c2c1 [sumatriptan],discrimination between human 5-HT1Dα and 5-HT1Dβ receptor subtypes,barely discriminates
